# Where a SMILES comes first, the peptide text is derived from it. Bridges are numbered along the chain shown (N, C = ends). [ ]: non-standard residue; d: D form. The star is where a group is joined. Hexanoyl = CCCCCC(=O)*
# Biological target: T1, NPR-B (Homo sapiens, UniProt P20594)
# T1 construct: a functional assay using endogenously NPR-B expressing GTM-3 cells; endogenous in cells; host or cells: GTM-3 (transformed human trabecular meshwork cells)
# T1 sequence (P20594 23-1047): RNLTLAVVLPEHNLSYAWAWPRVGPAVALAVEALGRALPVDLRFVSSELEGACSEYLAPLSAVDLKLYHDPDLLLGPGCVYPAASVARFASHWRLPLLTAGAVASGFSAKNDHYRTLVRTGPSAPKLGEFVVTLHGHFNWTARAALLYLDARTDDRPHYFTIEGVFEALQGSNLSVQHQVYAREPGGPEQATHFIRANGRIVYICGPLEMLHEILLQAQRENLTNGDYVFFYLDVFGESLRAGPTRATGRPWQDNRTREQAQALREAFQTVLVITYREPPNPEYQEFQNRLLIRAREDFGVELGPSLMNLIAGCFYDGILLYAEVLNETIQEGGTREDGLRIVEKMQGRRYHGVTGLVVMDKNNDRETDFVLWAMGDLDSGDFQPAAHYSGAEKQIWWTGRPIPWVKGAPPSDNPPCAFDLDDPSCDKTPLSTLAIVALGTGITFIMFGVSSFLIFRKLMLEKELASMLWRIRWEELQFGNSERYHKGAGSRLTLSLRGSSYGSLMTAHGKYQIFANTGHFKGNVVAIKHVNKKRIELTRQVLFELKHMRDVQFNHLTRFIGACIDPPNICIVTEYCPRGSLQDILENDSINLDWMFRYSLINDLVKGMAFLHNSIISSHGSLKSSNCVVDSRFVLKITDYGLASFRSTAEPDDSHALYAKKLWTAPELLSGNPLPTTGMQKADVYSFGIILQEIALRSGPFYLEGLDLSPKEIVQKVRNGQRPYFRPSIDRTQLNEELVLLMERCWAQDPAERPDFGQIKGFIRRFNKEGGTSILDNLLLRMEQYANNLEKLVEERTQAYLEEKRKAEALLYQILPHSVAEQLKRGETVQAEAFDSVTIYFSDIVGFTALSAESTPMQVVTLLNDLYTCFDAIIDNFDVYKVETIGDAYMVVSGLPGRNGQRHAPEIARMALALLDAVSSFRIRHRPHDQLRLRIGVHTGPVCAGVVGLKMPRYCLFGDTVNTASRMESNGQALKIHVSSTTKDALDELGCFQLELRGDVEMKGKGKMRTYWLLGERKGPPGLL
# Assay: NPR-B induced production of cyclic GMP in GTM-3 cells
# Type: cell-based
# Conditions: Activity (group): NPR-B activation, EC50 and Emax (CNP = 100%)
# Procedure: The efficacy and potency of compounds to activate NPR-B were evaluated in a functional assay using endogenously NPR-B expressing GTM-3 cells (Pang et al. 1994, Curr Eye Res 13:51-63). In this assay the dose dependent production of cyclic GMP (cGMP) is determined and Emax (maximum activation) and EC50 values are calculated.
# The cell culture medium is aspirated and each well is washed with 200 μl DMEM/Ham's F12=Medium (Gibco). Then, 200 μl Medium supplemented with 1 mM IBMX (3-Isobutyl-1-methyl-xanthin, Sigma) is added to each well and incubated for 15 min. at room temperature.
# Final compound concentrations are in the range from 45 μM to 20 nM.
row,SMILES,EC50 [µM]
1,CC[C@H](C)[C@@H]1NC(=O)[C@H](CCCNC(=N)N)NC(=O)[C@H](CC(=O)O)NC(=O)[C@H](CC(C)C)NC(=O)[C@H](CCCCN)NC(=O)[C@H](CC(C)C)NC(=O)CNC(=O)[C@H](Cc2ccccc2)NC(=O)[C@@H](C)NC(=O)[C@@H](NC(=O)CC(C)C)CSSC[C@@H](C(N)=O)NC(=O)[C@H](CO)NC1=O [compound 63],< 5

# Same assay, conditions: Activity (group): NPR-B activation, EC50 and Emax (CNP = 100%), GTM-3 cells; group needs both EC50 and Emax criteria, checked A then B then C
row,SMILES,EC50 [µM]
1,CCCCCC(=O)N[C@H]1CSSC[C@@H](C(N)=O)NC(=O)[C@H](CO)NC(=O)[C@H]([C@@H](C)CC)NC(=O)[C@H](CCCNC(=N)N)NC(=O)[C@H](CC(=O)O)NC(=O)[C@H](CC(C)C)NC(=O)[C@@H]2CCCN2C(=O)[C@H](CC(C)C)NC(=O)CNC(=O)[C@H](Cc2ccccc2)NC(=O)[C@@H](C)NC1=O [compound 93],< 1
2,CC[C@H](C)[C@@H]1NC(=O)[C@H](CCCNC(=N)N)NC(=O)[C@H](CC(=O)O)NC(=O)[C@H](CC(C)C)NC(=O)[C@@H]2CCCN2C(=O)[C@H](CC(C)C)NC(=O)CNC(=O)[C@H](Cc2ccccc2)NC(=O)[C@@H](C)NC(=O)[C@@H](NC(=O)[C@@H](N)CCSC)CSSC[C@@H](C(N)=O)NC(=O)[C@H](CO)NC1=O [compound 49],< 1
3,CC[C@H](C)[C@@H]1NC(=O)[C@H](CCCNC(=N)N)NC(=O)[C@H](CC(=O)O)NC(=O)[C@H](CC(C)C)NC(=O)[C@H](CCCCN)NC(=O)[C@H](Cc2c[nH]cn2)NC(=O)CNC(=O)[C@H](Cc2ccccc2)NC(=O)[C@H](Cc2c[nH]cn2)NC(=O)[C@@H](NC(=O)[C@@H](N)CCSC)CSSC[C@@H](C(N)=O)NC(=O)[C@H](CO)NC1=O [compound 20] (H-MCHFGHKLDRISC-NH2; disulfide 2-13),< 5
4,CCCCCC(=O)N[C@H]1CSSC[C@@H](C(N)=O)NC(=O)[C@H](CO)NC(=O)[C@H]([C@@H](C)CC)NC(=O)[C@H](CCCNC(=N)N)NC(=O)[C@H](CC(=O)O)NC(=O)[C@H](CC(C)C)NC(=O)[C@@H]2CCCN2C(=O)[C@H](CC(C)C)NC(=O)CNC(=O)[C@H](Cc2ccccc2)NC(=O)[C@H]2CCCN2C1=O [compound 91] (Hexanoyl-C[dP]FGLPLDRISC-NH2; disulfide 1-12),< 1

# Same assay, conditions: GTM-3 cells; group needs both EC50 and Emax criteria, checked A then B then C; read-out: Activity (group): NPR-B activation, EC50 and Emax (CNP = 100%)
row,EC50 [µM],SMILES
1,< 1,CCCCCC(=O)N[C@H]1CSSC[C@@H](C(N)=O)NC(=O)[C@H](CO)NC(=O)[C@H]([C@@H](C)CC)NC(=O)[C@H](CCCNC(=N)N)NC(=O)[C@H](CC(=O)O)NC(=O)[C@H](CC(C)C)NC(=O)[C@H](CCCCN)NC(=O)[C@H](CC(C)C)NC(=O)CNC(=O)[C@H](Cc2ccccc2)NC(=O)[C@H]2CCCN2C1=O [compound 90]
2,< 5,CC[C@H](C)[C@@H]1NC(=O)[C@H](CCCNC(=N)N)NC(=O)[C@H](CC(=O)O)NC(=O)[C@H](CC(C)C)NC(=O)[C@H](CCCCN)NC(=O)[C@H](CC(C)C)NC(=O)[C@@H](C)NC(=O)[C@H](Cc2ccccc2)NC(=O)[C@@H](Cc2c[nH]cn2)NC(=O)[C@@H](NC(=O)[C@@H](N)CCSC)CSSC[C@@H](C(N)=O)NC(=O)[C@H](CO)NC1=O [compound 35]
3,< 5,CC[C@H](C)[C@@H]1NC(=O)[C@H](CCCNC(=N)N)NC(=O)[C@H](CC(=O)O)NC(=O)[C@H](CC(C)C)NC(=O)[C@H](CCCCN)NC(=O)[C@H](CC(=O)O)NC(=O)CNC(=O)[C@H](Cc2ccccc2)NC(=O)[C@H](Cc2c[nH]cn2)NC(=O)[C@@H](NC(=O)[C@@H](N)CCSC)CSSC[C@@H](C(N)=O)NC(=O)[C@H](CO)NC1=O [compound 19] (H-MCHFGDKLDRISC-NH2; disulfide 2-13)
4,< 5,CC[C@H](C)[C@@H]1NC(=O)[C@H](CCCNC(=N)N)NC(=O)[C@H](CC(=O)O)NC(=O)[C@H](CC(C)C)NC(=O)[C@H](CCCCN)NC(=O)[C@H](CC(C)C)NC(=O)CNC(=O)[C@H](Cc2ccccc2)NC(=O)[C@H](Cc2c[nH]cn2)NC(=O)[C@@H](NC(=O)[C@@H](N)CCSC)CSSC[C@@H](C(=O)N[C@@H](CC(C)C)C(=O)N[C@@H](CCCNC(=N)N)C(N)=O)NC(=O)[C@H](CO)NC1=O [compound 23] (H-MCHFGLKLDRISCLR-NH2; disulfide 2-13)
5,< 5,CC[C@H](C)[C@@H]1NC(=O)[C@H](CCCNC(=N)N)NC(=O)[C@H](CC(=O)O)NC(=O)[C@H](CC(C)C)NC(=O)[C@H](CCCCN)NC(=O)[C@H](CC(C)C)NC(=O)CNC(=O)[C@H](Cc2ccccc2)NC(=O)[C@H](Cc2c[nH]cn2)NC(=O)[C@@H](NC(=O)[C@@H](N)CCSC)CSSC[C@@H](C(=O)N[C@@H](Cc2ccc(O)cc2)C(=O)N[C@@H](Cc2c[nH]cn2)C(N)=O)NC(=O)[C@H](CO)NC1=O [compound 28] (H-MCHFGLKLDRISCYH-NH2; disulfide 2-13)
6,< 15,CCCC[C@H](N)C(=O)N[C@H]1CSSC[C@@H](C(N)=O)NC(=O)[C@H](CO)NC(=O)[C@H]([C@@H](C)CC)NC(=O)[C@H](CCCNC(=N)N)NC(=O)[C@H](CC(=O)O)NC(=O)[C@H](CC(C)C)NC(=O)[C@H](CCCCN)NC(=O)[C@H](CC(C)C)NC(=O)CNC(=O)[C@H](Cc2ccccc2)NC(=O)[C@H](Cc2c[nH]cn2)NC1=O [compound 16]
7,< 5,CC[C@H](C)[C@@H]1NC(=O)[C@H](CCCNC(=N)N)NC(=O)[C@H](CC(=O)O)NC(=O)[C@H](CC(C)C)NC(=O)[C@H](CCCCN)NC(=O)[C@H](CC(C)C)NC(=O)CNC(=O)[C@H](Cc2ccccc2)NC(=O)[C@H](Cc2c[nH]cn2)NC(=O)[C@@H](NC(=O)[C@@H](N)CCSC)CSSC[C@@H](C(N)=O)NC(=O)[C@H](CO)NC1=O [compound 7]
8,< 5,CC[C@H](C)[C@@H]1NC(=O)[C@H](CCCNC(=N)N)NC(=O)[C@H](CC(=O)O)NC(=O)[C@H](CC(C)C)NC(=O)[C@H](CCCCN)NC(=O)[C@H](CC(C)C)NC(=O)CNC(=O)[C@H](Cc2ccccc2)NC(=O)[C@H](Cc2c[nH]cn2)NC(=O)[C@@H](NC(=O)[C@H](N)CCSC)CSSC[C@@H](C(N)=O)NC(=O)[C@H](CO)NC1=O [compound 10]

row,SMILES,EC50 [µM]
1,CC[C@H](C)[C@@H]1NC(=O)[C@H](CCCNC(=N)N)NC(=O)[C@H](CC(=O)O)NC(=O)[C@H](CC(C)C)NC(=O)[C@H](CCCCN)NC(=O)[C@H](CC(C)C)NC(=O)CNC(=O)[C@H](Cc2ccccc2)NC(=O)[C@H](Cc2c[nH]cn2)NC(=O)[C@H](NC(=O)[C@@H](N)CCSC)CSSC[C@H](C(N)=O)NC(=O)[C@H](CO)NC1=O [compound 13],< 15
2,CC[C@H](C)[C@@H]1NC(=O)[C@H](CCCNC(=N)N)NC(=O)[C@H](CC(=O)O)NC(=O)[C@H](CC(C)C)NC(=O)[C@H](CCCCN)NC(=O)[C@H](CC(C)C)NC(=O)CNC(=O)[C@H](Cc2ccccc2)NC(=O)[C@@H](Cc2ccccc2)NC(=O)[C@@H](NC(=O)[C@@H](N)CCSC)CSSC[C@@H](C(N)=O)NC(=O)[C@H](CO)NC1=O [compound 45],< 15
3,CC[C@H](C)[C@@H]1NC(=O)[C@H](CCCNC(=N)N)NC(=O)[C@H](CC(=O)O)NC(=O)[C@H](CC(C)C)NC(=O)[C@H](CCCCN)NC(=O)[C@H](CC(C)C)NC(=O)CNC(=O)[C@H](Cc2ccccc2)NC(=O)[C@H](Cc2c[nH]cn2)NC(=O)[C@@H](NC(=O)[C@@H](N)CCSC)CSSC[C@@H](C(=O)N[C@@H](Cc2c[nH]c3ccccc23)C(=O)N[C@@H](CCCNC(=N)N)C(N)=O)NC(=O)[C@H](CO)NC1=O [compound 21] (H-MCHFGLKLDRISCWR-NH2; disulfide 2-13),< 15
4,CC[C@H](C)[C@@H]1NC(=O)[C@H](CCCNC(=N)N)NC(=O)[C@H](CC(=O)O)NC(=O)[C@H](CC(C)C)NC(=O)[C@H](CCCCN)NC(=O)[C@H](CC(C)C)NC(=O)CNC(=O)[C@H](Cc2ccccc2)NC(=O)[C@H](Cc2c[nH]cn2)NC(=O)[C@H](NC(=O)[C@@H](N)CCSC)CSSC[C@@H](C(N)=O)NC(=O)[C@H](CO)NC1=O [compound 11],< 15
